2 compounds from patent publication US20240299299A1, “COMPOSITIONS AND METHODS FOR INCREASING THE EFFICACY OF IMMUNOTHERAPIES AND VACCINES” (The Regents of the University of Michigan, priority 2021, published 2024) can be followed below.

In data set [1] the test system is OT-I CD8+ T cells. Kind of data set: In vitro central memory (Tcm) differentiation of OT-I CD8+ T cells activated with SIINFEKL peptide and IL-2 with metabolites. The class given is cell-based, mice. As to conditions: day 8; metabolite-supplemented medium (arginine 3 mM, 3-methylhistidine 3 mM, DHB 100 μM, sodium ferulate 100 μM). How it is done: (§1) FIG. 2: a) OT-I CD8+ T cells were cultured with different metabolites in vitro as indicated, b,c) shown is the frequency of CD44^+CD62L^+ Tcm CD8+ T cells on day 8. d) OT-I CD8+ T cells were activated with α-CD3/α-CD28 antibodies in presence of metabolites as indicated and shown is the Tcm CD8+ T cells on day 7. Data represent the mean±s.e.m. (n=5).
(§2) Splenocytes from OT-I mice were obtained aseptically. The cells were cultured in 96-well plates (1×10^5 cells per well). For Tcm differentiation study, cells were activated with SIINFEKL peptide (4×10^−9M) in the presence of various metabolites (arginine: 3 mM; 3-methylhistidine: 3 mM; N-acetylneuraminate: 100 μM; disodium sebacate: 100 μM; DHB: 100 μM; pantothenate: 100 μM; γ-aminobutyric acid: 100 μM; glycerol: 100 μM; AICAR: 100 μM, sodium ferulate: 100 μM) for 3 days. Then cells were washed three times with T-cell medium and further cultured with IL-2 (10 ng ml^−1; PeproTech) in the presence of metabolites for 5 days. The cells were then washed twice and re-activated with SIINFEKL peptide (10 μM) for 2 h. The suspension cells were collected, blocked with CD16/32 antibody and stained with the fixable viability dye eFluor 450, FITC-CD44 rat anti-human/mouse and PE-CD62L monoclonal antibody. To test if the central memory CD8+ T cells differentiation is dependent on dendritic cells, CD8 T cells isolated from the spleen in OT-I mice were incubated in the 96-well plate, which was precoated with anti-hamster IgG antibody. […] (1 μg mL^−1) and IL-2 (100 U mL^−1) were added into each well in the presence of 3-methylhistidine (3 mM), DHB (100 μM), or sodium ferulate (100 μM) for 2 days. Then cells were washed for three times to remove α-CD3/α-CD28 antibodies and further incubated with metabolites and IL-2 (10 ng ml^−1) for 5 days. Thereafter, cells were collected for central memory CD8^+ T cells analysis. For CD8^+ T cells survival study, cells were activated with antigen peptide as above, following with thoroughly washing, and incubation in presence of IL-2 for 2 days. Metabolites were added during this incubation (arginine: 3 mM, 1 mM; 3-methylhistidine: 3 mM, 1 mM, 500 μM, 100 μM; N-acetylneuraminate: 100 μM; disodium sebacate: 100 μM; DHB: 100 μM, 50 μM, 20 μM; pantothenate: 100 μM; γ-aminobutyric acid: 100 μM; glycerol: 100 μM; AICAR: 100 μM). Then cells were further incubated in absence of both IL-2 and metabolites for 36 h to induce the apoptosis/dead. For Tcf1^+CD8^+ differentiation study, cells were activated with antigen peptide as above, followed by thoroughly washing, and incubation with metabolites in presence of IL-2 for 3 days. […] Tcf1^+CD8^+, CD44^+CD62L^+CD8^+ and survival (stained with Annexin V-APC and PI) T cells were detected via flow cytometry.

Data set [2] has as its system OT-I CD8+ T cells. Kind of data set: Tcm differentiation of isolated OT-I CD8+ T cells activated with α-CD3/α-CD28 in the absence of dendritic cells. The class given is cell-based, mice. As to conditions: α-CD3/α-CD28 activation; 3-methylhistidine 3 mM, DHB 100 μM; day 7. As for the experimental part: as §1
Splenocytes from OT-I mice were obtained aseptically. The cells were cultured in 96-well plates (1×10^5 cells per well). For Tcm differentiation study, cells were activated with SIINFEKL peptide (4×10^−9M) in the presence of various metabolites (arginine: 3 mM; 3-methylhistidine: 3 mM; N-acetylneuraminate: 100 μM; disodium sebacate: 100 μM; DHB: 100 μM; pantothenate: 100 μM; γ-aminobutyric acid: 100 μM; glycerol: 100 μM; AICAR: 100 μM, sodium ferulate: 100 μM) for 3 days. Then cells were washed three times with T-cell medium and further cultured with IL-2 (10 ng ml^−1; PeproTech) in the presence of metabolites for 5 days. The cells were then washed twice and re-activated with SIINFEKL peptide (10 μM) for 2 h. The suspension cells were collected, blocked with CD16/32 antibody and stained with the fixable viability dye eFluor 450, FITC-CD44 rat anti-human/mouse and PE-CD62L monoclonal antibody. […] Tcf1^+CD8^+, CD44^+CD62L^+CD8^+ and survival (stained with Annexin V-APC and PI) T cells were detected via flow cytometry.

Data set [3] has as its system OT-I CD8+ T cells. Kind of data set: Tcf1+CD8+ differentiation of OT-I T cells with metabolites. The class given is cell-based, mice. As to conditions: day 6. As for the experimental part: FIG. 3: a) OT-I CD8+ T cells were cultured with different metabolites in vitro as indicated, b,c) shown are the frequency of the Tcf1^+CD8+ T cells and the representative flow cytometry plots on day 6. Data represent the mean±s.e.m. (n=5).
as §2, with “days.” for “days. Metabolites were added during this incubation (arginine: 3 mM, 1 mM; 3-methylhistidine: 3 mM, 1 mM, 500 μM, 100 μM; N-acetylneuraminate: 100 μM; disodium sebacate: 100 μM; DHB: 100 μM, 50 μM, 20 μM; pantothenate: 100 μM; γ-aminobutyric acid: 100 μM; glycerol: 100 μM; AICAR: 100 μM). Then cells were further incubated in absence of both IL-2 and metabolites for 36 h to induce the apoptosis/dead. For Tcf1^+CD8^+ differentiation study, cells were activated with antigen peptide as above, followed by thoroughly washing, and incubation with metabolites in presence of IL-2 for 3 days.”

Data set [4] concerns OT-I CD8+ T cells. Kind of data set: CD8+ T cell survival upon IL-2 withdrawal (Annexin V/PI). Format: cell-based, mice. As to conditions: dependent on the dose of metabolites. As for the experimental part: FIG. 4: a) OT-I CD8+ T cells were cultured with different metabolites in vitro as indicated, b,c) shown are the level of survival CD8+ T cells (Annexin V^−PI^−) as well as the representative flow cytometry plots on day 5.5. Data represent the mean±s.e.m. (n=5).
as §2, with “days.” for “days. Metabolites were added during this incubation (arginine: 3 mM, 1 mM; 3-methylhistidine: 3 mM, 1 mM, 500 μM, 100 μM; N-acetylneuraminate: 100 μM; disodium sebacate: 100 μM; DHB: 100 μM, 50 μM, 20 μM; pantothenate: 100 μM; γ-aminobutyric acid: 100 μM; glycerol: 100 μM; AICAR: 100 μM). Then cells were further incubated in absence of both IL-2 and metabolites for 36 h to induce the apoptosis/dead. For Tcf1^+CD8^+ differentiation study, cells were activated with antigen peptide as above, followed by thoroughly washing, and incubation with metabolites in presence of IL-2 for 3 days.”

Data set [5] concerns CT26 colon carcinoma cells. Kind of data set: CT26 tumor model, intratumoral metabolites plus α-PD-1. Format: in vivo, BALB/c mice. As for the experimental part: FIG. 5: a) Therapeutic treatment regimen. BALB/c mice were s.c. inoculated with 1.5×10^5 CT26 colon carcinoma cells. The candidate metabolites were injected intratumorally every other day, 100 μg α-PD-1 was i.p. injected on days 9, 12, 16 and 20. b) Average tumor growth, c) individual tumor growth, and d) overall Kaplan-Meier survival are shown. Data represent the mean±s.e.m. (n=5).
(§3) Animals were cared for following the federal, state and local guidelines. All work conducted on animals was in accordance with and approved by the Institutional Animal Care and Use Committee (IACUC). Female (6-8 weeks old) BALB/c mice from Jackson Laboratory were inoculated with 1.5×10^5 CT26 cells per mouse on the right flank by s.c. injection. Tumor-bearing mice were randomly assigned to different treatment groups. For intratumoral injection study, the mice were injected with 3-methylhistidine (dose: 1 mg per mouse), sodium hippurate (dose: 1 mg per mouse), disodium sebacate (dose: 1 mg per mouse), sodium ferulate (dose: 1 mg per mouse), or DHB (dose: 0.5 mg per mouse) in 40 μL PBS buffer for every other day. The mice were i.p. injected with α-PD-1 antibody (100 μg per dose; clone RMP1-14, Bioxcell) on days 9, 12, 16 and 20 post tumor inoculation. For oral administration study, the mice were injected with 3-methylhistidine (dose: 3 mg per mouse), sodium hippurate (dose: 3 mg per mouse), disodium sebacate (dose: 3 mg per mouse), sodium ferulate (dose: 3 mg per mouse), or DHB (dose: 2.4 mg per mouse) in PBS buffer for 3 times every 4 days. α-PD-1 was injected on days 10, 14, 18 and 22. The tumor size was measured, and the tumor volume was calculated as ½×(length×width^2). Tumor-bearing mice were euthanized when the tumor size reached 1.5 cm in any diameter or when the animals became moribund with severe weight loss (>20%) or tumor ulceration.

The subject of data set [6] is CT26 colon carcinoma cells. Kind of data set: CT26 tumor model, orally administered metabolites plus α-PD-1. Format: in vivo, BALB/c mice. Particulars: oral gavage 3 times every 4 days (DHB 2.4 mg, 3-methylhistidine 3 mg per mouse) plus α-PD-1 i.p. As for the experimental part:
FIG. 6: a) Therapeutic treatment regimen. BALB/c mice were s.c. inoculated with 1.5×10^5 CT26 colon carcinoma cells. The candidate agents were orally administrated 3 times every 4 days, 100 μg α-PD-1 was injected i.p. on days 10, 14, 18 and 22. b) Average tumor growth, c) individual tumor growth. Data represent the mean±s.e.m. (n=4-5).
as §3, with “For oral administration study, the mice were injected with 3-methylhistidine (dose: 3 mg per mouse), sodium hippurate (dose: 3 mg per mouse), disodium sebacate (dose: 3 mg per mouse), sodium ferulate (dose: 3 mg per mouse), or DHB (dose: 2.4 mg per mouse) in PBS buffer for 3 times every 4 days. α-PD-1 was injected on days 10, 14, 18 and 22.” left out, “Tumor-bearing mice were euthanized when the tumor size reached 1.5 cm in any diameter or when the animals became moribund with severe weight loss (>20%) or tumor ulceration.” left out

Data set [7] has as its system activated T cells, MC38, B16F10, and CT26 tumor cells. The experiment in a line: In vitro cell viability of DHB at various concentrations. Format: cell-based. As to conditions: concentration below 1 mM. How it is done: (§4) FIG. 7: a-d) In vitro cell viability of DHB at various concentrations in activated T cells, MC38, B16F10, and CT26 tumor cells. e) BALB/c mice were s.c. inoculated with 1.5×10^5 CT26 colon carcinoma cells. DHB (2.4 mg per dose) or 3-methylhistidine (3 mg per dose) was i.p. injected 3 times every 4 days, 100 μg α-PD-1 was i.p. injected on days 11, 15, and 20. Shown is the average tumor growth. Data represent the mean±s.e.m. (n=4-5).

For data set [8], the system named is CT26 colon carcinoma cells. The experiment in a line: CT26 tumor model, metabolite monotherapy i.p. without α-PD-1. The class given is in vivo, BALB/c mice. As to conditions: monotherapy without α-PD-1 IgG; i.p. DHB 2.4 mg or 3-methylhistidine 3 mg per dose. As for the experimental part: as §4
For data set [9], the system named is CT26 colon carcinoma cells. The experiment in a line: CT26 tumor model, oral prodrug #717 plus α-PD-1. The class given is in vivo, BALB/c mice. Particulars: 2 mg per dose every other day starting day 8. As for the experimental part:
FIG. 10: BALB/c mice were s.c. inoculated with 1.5×10^5 CT26 colon carcinoma cells. The prodrug #717 (2 mg per dose) were orally administrated every other day starting day 8. 100 μg α-PD-1 was injected i.p. on days 11 and 16. Shown is the average tumor growth. Data represent the mean±s.e.m. (n=5).

Molecules are shown by their SMILES.

In the case of `O=C(O)c1ccc(O)c(O)c1` [DHB, 3,4-dihydroxybenzoate], the “differentiation of CD44+CD62L+ central memory CD8+ T cells” value in data set [1] is recorded as “significantly increased the differentiation”. The “induction of central memory CD8+ T cells in the absence of dendritic cells” value in [2] is reported as “can also induce central memory CD8^+ T cells”. Also, in data set [3], the “frequency of Tcf1+CD8+ T cells” value was “increased the frequency”. Besides, the “survival of activated CD8+ T cells” value in [4] was “significantly increased the survival”. In addition, the “systemic antitumor efficacy of α-PD-1 treatment and CT26 tumor growth” value in data set [5] (intratumoral every other day (DHB 0.5 mg, 3-methylhistidine 1 mg per mouse) plus α-PD-1 i.p.) is “improved the systemic antitumor efficacy of α-PD-1 treatment and slowed down the CT26 tumors growth”. Moreover, the “tumor-free mice on day 70” value in data set [5] (intratumoral metabolite plus α-PD-1 i.p.) came to 80%. Also, the “efficacy of α-PD-1 treatment” value in data set [6] is listed as “improved the efficacy of α-PD-1 treatment”. In addition, the cell toxicity entry in [7] was “low cell toxicity”. In addition, the “tumor growth in vivo” value in data set [8] is “did not inhibit the tumor growth”.

For the compound `COC(=O)[C@H](Cc1cncn1C)NC(=O)OC(C)(C)C` [Prodrug #717, methyl Na-(tert-butoxycarbonyl)-Np-methyl-L-histidinate], the “synergy with α-PD-1 against tumor growth in vivo” value in data set [9] is listed as “did not synergize”.
